Patent US20230405315A1, “Compositions And Methods For Treating With A Combination Of Alternating Electric Fields And FGF Inhibitors” (NOVOCURE GMBH, priority 2022, published 2023)

How the values were obtained:
[1] = tested on: FGFR1 mRNA expression in SRC1 and SRC2 glioblastoma stem cells; experiment: FGFR1 mRNA expression by qPCR in glioblastoma stem cells treated with TTFields and FGFR inhibitor; format: cell-based; conditions: PMGB 125 nM concomitantly with TTFields 200 kHz for 3 days
Procedure: FGFR1 mRNA level was quantified by qPCR in SRC1 and SRC2 glioblastoma stem cells after 3 days treatment with TTFields (200 kHz). Results are expressed in Fold change of FGFR1 expression in cells treated with TTFields compared to FGFR1 expression in non treated cells with TTFields.
Pemigatininb (PMGB) is an FGFR inhibitor. SRC1 and SRC2 were treated concomitantly with PMGB (125 nM) and TTFields (200 kHz) for 3 days. Results are expressed in Fold change of FGFR1 expression in cells treated with TTFields compared to FGFR1 expression in control cells.
(§1) This study focuses on the involvement of FGFR1 in the control of sensitivity to TTFields. The study was performed on several glioblastoma stem cells (GSC) fully characterized in vitro and in vivo that were obtained from clinical trial STEMRI (NCT01872221) at Institut Claudius Regaud. The inventors wish to thank Institut Claudius Regaud for providing the glioblastoma stem cells used in these experiments.

FGF1, 2, 3, or 4 = conditions: comparison with lenvatinib (nonselective inhibitor of FGFR); cited from earlier work
[2] = tested on: GBM biopsy specimen (SRA4, SRC1, SRC2, SRB2, and SRA5) glioblastoma stem cells; experiment: Cell survival to TTFields in the presence of FGFR1 inhibitor; format: cell-based; conditions: 5 GBM biopsy specimen, 3 days of TTFields 200 kHz and PMGB 125 nM
Procedure: as §1
The mechanism of radiation to induce cell death can be a result of DNA damage which leads to apoptosis, because it is known that TTFields also generate DNA damage and reduce the DNA repair mechanism. Radio sensitization is […] following addition of FGFR inhibitor. There is increased sensitivity to TTFields when there is concomitant treatment with FGFR inhibition which indicates a synergistic result of increased secretion of FGF family members in serum and conditioned media following TTFields application, thus explaining the reduced sensitivity of cells to TTFields.

## CCN1C(=O)N(c2c(F)c(OC)cc(OC)c2F)Cc2cnc3[nH]c(CN4CCOCC4)cc3c21 [Pemigatinib]
[1]; listed as PMGB
  FGFR1 mRNA expression induced by TTFields (fold change vs control cells): inhibited
[1]; listed as pemigatinib
  FGFR1 mRNA expression induced by TTFields (fold change vs control cells): inhibition
FGF1, 2, 3, or 4
  IC50 against at least one of FGF1, 2, 3, or 4, compared with lenvatinib: significantly lower IC50
[2]
  Cytotoxic effect / cell survival: cytotoxic effect
